Measurements as given in patent US9458104B2 (priority 2012, dated 2016).

Tests used:
RORγ = target: T1, RORγ (UniProt P51449); type: cell-based; settings: 293T cells, 16 h; for pIC50 (FF): firefly (FF) luciferase; for pIC50 (REN): renilla normalised (RENnorm) luciferase
T1 construct: hRORg-LBD|aa259-518|NP_005051.2; hRORgt|aa1-497|NP_001001523 (RORg, t isoform, 497aa); mRORg-LBD|aa264-516|NP_035411
T1 sequence (P51449 1-518): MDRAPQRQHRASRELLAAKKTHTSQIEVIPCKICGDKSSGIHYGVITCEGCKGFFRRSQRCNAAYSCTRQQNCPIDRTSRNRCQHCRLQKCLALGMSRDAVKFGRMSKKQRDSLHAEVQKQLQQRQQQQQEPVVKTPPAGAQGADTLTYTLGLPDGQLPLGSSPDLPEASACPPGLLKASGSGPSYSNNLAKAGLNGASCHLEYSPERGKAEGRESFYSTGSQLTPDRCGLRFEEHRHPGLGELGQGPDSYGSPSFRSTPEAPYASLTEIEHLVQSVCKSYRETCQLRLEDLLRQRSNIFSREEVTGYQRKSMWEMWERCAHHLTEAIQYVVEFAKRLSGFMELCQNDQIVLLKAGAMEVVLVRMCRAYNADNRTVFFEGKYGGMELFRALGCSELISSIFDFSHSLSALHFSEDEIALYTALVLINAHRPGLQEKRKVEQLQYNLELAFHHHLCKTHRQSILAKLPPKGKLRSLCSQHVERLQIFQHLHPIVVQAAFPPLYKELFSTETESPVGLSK

[1] = target: T2, RORγ ligand binding domain (LBD) (Homo sapiens, UniProt P51449); assay: TR-FRET Activity Assay (ligand sensing assay, RORγ-LBD / coactivator peptide interaction); type: biochemical
T2 construct: made in house; host or cells: E. coli BL-21 (BL3), vector pDEST15
T2 sequence (P51449 269-508 limits assumed): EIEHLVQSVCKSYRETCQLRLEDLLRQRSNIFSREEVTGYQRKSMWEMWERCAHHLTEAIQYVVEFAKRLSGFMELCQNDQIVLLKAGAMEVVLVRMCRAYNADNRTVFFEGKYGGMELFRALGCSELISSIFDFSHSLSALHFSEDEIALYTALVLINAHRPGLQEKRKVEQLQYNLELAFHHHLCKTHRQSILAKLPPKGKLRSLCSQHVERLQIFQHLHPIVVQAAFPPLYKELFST
In short: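 GST-RORγ LBD expressed in bacteria, 20–60 ng/well, with biotinylated coactivator peptide 200–600 nM, streptavidin-APC and Eu-anti-GST. Buffer: 20 mM Tris-HCl pH 6.8, 60 mM KCl, 1 mM DTT, 5 mM MgCl2, BSA; 1% DMSO. LANCE TR-FRET 665/615 nm ratio; IC50 from four-parameter logistic fit.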

Cn1c(C(=O)O)cc(-c2ccc(S(=O)(=O)NC(C)(C)C)c3ccccc23)c1CC1CCCCC1 [Example 317, 4-(4-(N-(tert-Butyl)sulfamoyl)naphthalen-1-yl)-5-(cyclohexylmethyl)-1-methyl-1H-pyrrole-2-carboxylic acid]
pIC50 (FF) (RORγ): 6.9 | pIC50 (REN) (RORγ): 6.9 | IC50 [1]: 1260 nM

Cn1c(C(=O)NCC(C)(C)C(=O)O)cc(-c2cc(C(C)(C)C)cc(C3(C)CC3)c2)c1CC1CCCCC1 [8/13]
pIC50 (FF) (RORγ): 7.4 | pIC50 (REN) (RORγ): 7.6 | IC50 [1]: 2510 nM

CC(C)(C)c1cc(-n2nc(C(N)=O)cc2CC2CCCCC2)cc(C(C)(C)C)c1 [Example 312, 5-(Cyclohexylmethyl)-1-(3,5-di-tert-butylphenyl)-1H-pyrazole-3-carboxamide]
pIC50 (FF) (RORγ): 6.2 | pIC50 (REN) (RORγ): 6.3 | IC50 [1]: 251 nM

Cn1c(C(=O)N[C@H]2C[C@H](C(=O)O)C2)cc(-c2cc(C(C)(C)C)cc(C3(C)CC3)c2)c1CC1CCCCC1 [Example 8, (trans)-3-(4-(3-(tert-BUTYL)-5-(1-methylcyclopropyl)phenyl)-5-(cyclohexylmethyl)-1-methyl-1H-pyrrole-2-carboxamido)cyclobutanecarboxylic acid]
pIC50 (FF) (RORγ): 7.6 | pIC50 (REN) (RORγ): 7.7 | IC50 [1]: 1000 nM

CC1(CNC(=O)c2nn(-c3cc(C(C)(C)C)nc(C(C)(C)C)c3)c(CC3CCCCC3)c2Cl)COC1 [Example 105, 4-Chloro-5-(cyclohexylmethyl)-1-(2,6-di-tert-butylpyridin-4-yl)-N-((3-methyloxetan-3-yl)methyl)-1H-pyrazole-3-carboxamide]
pIC50 (FF) (RORγ): < 4.7 | pIC50 (REN) (RORγ): < 4.7 | IC50 [1]: 6310 nM

Cn1c(C(=O)NC2CCOCC2)cc(-c2cc(C(C)(C)C)cc(C3(C)CC3)c2)c1CC1CCCCC1 [8/3]
pIC50 (FF) (RORγ): 7.1 | pIC50 (REN) (RORγ): 7.3 | IC50 [1]: 501 nM

Cc1c(C(=O)N[C@H]2C[C@H](C(=O)O)C2)cn(-c2cc(C(C)(C)C)cc(C3(C)CC3)c2)c1[S+]([O-])C1CCCCC1 (stereo partly drawn) [Example 22, trans-3-(1-(3-(tert-Butyl)-5-(1-methylcyclopropyl)phenyl)-5-(cyclohexylsulfinyl)-4-methyl-1H-pyrrole-3-carboxamido)cyclobutanecarboxylic acid]
pIC50 (FF) (RORγ): 7.1 | pIC50 (REN) (RORγ): 7.1 | IC50 [1]: 2000 nM

C[C@H](O)CNC(=O)c1nc(-c2cc(C(C)(C)C)c(O)c(C(C)(C)C)c2)n(CC2CCCCC2)n1 [308/8]
pIC50 (FF) (RORγ): 6.2 | pIC50 (REN) (RORγ): 6.3 | IC50 [1]: 1580 nM

CC(C)(C)c1cc(-n2nc(C(=O)NC3CCOCC3)c(Cl)c2CC2CCCCC2)cc(C(C)(C)C)c1 [103/2]
pIC50 (FF) (RORγ): 6.3 | pIC50 (REN) (RORγ): 6.4 | IC50 [1]: 316 nM

Cn1c(C(=O)NC2CCOCC2)cc(-c2ccc(S(=O)(=O)NC(C)(C)C)c(C(C)(C)C)c2)c1CC1CCCCC1 [8/2]
pIC50 (FF) (RORγ): 7.1 | pIC50 (REN) (RORγ): 7.3 | IC50 [1]: 398 nM

Cc1c(C(=O)NC2CCOCC2)cc(-c2ccc(S(=O)(=O)NC(C)(C)C)c(C(F)(F)F)c2)n1CC1CCOC1 (stereo not drawn) [302/4]
pIC50 (FF) (RORγ): < 4.7 | pIC50 (REN) (RORγ): < 4.7 | IC50 [1]: 3980 nM

CC(C)(O)CNC(=O)c1nn(-c2cc(C(C)(C)C)cc(C(C)(C)C)c2)c(CC2CCCCC2)c1Cl [103/5]
pIC50 (FF) (RORγ): 6.2 | pIC50 (REN) (RORγ): 6.3 | IC50 [1]: 316 nM

CCS(=O)(=O)c1cc(-c2cc(C(C)(C)C)cc(C(C)(C)C)c2)n(CC2CCCCC2)c1C [Example 325/1]
pIC50 (FF) (RORγ): 6.0 | pIC50 (REN) (RORγ): 6.3 | IC50 [1]: 251 nM

Cc1c(C(=O)NCCC(C)(C)C(=O)O)cn(-c2ccc(S(=O)(=O)NC(C)(C)C)c(C(F)(F)F)c2)c1CC1CCCCC1 [Example 4, 4-(1-(4-(N-(tert-Butyl)sulfamoyl)-3-(trifluoromethyl)phenyl)-5-(cyclohexylmethyl)-4-methyl-1H-pyrrole-3-carboxamido)-2,2-dimethylbutanoic acid]
pIC50 (FF) (RORγ): 7.7 | pIC50 (REN) (RORγ): 7.7 | IC50 [1]: 501 nM

Cc1c(C(=O)NCCC(C)(C)C(=O)O)cn(-c2cc(C(C)(C)C)cc(C3(C)CC3)c2)c1CC1CCCCC1 [1/4]
pIC50 (FF) (RORγ): 7.2 | pIC50 (REN) (RORγ): 7.2 | IC50 [1]: 398 nM

CC(C)(C)c1cc(-n2nc(C(=O)NCc3ccno3)c(Cl)c2CC2CCCCC2)cc(C(C)(C)C)c1 [103/6]
pIC50 (FF) (RORγ): 6.1 | pIC50 (REN) (RORγ): 6.2 | IC50 [1]: 631 nM

Cn1c(C(=O)N[C@H]2C[C@H](C(=O)O)C2)cc(-c2cc(C(C)(C)C)nc(C(C)(C)C)n2)c1CC1CCCCC1 [8/19]
pIC50 (FF) (RORγ): 6.8 | pIC50 (REN) (RORγ): 6.8 | IC50 [1]: 794 nM

Cc1c(C(=O)N[C@H]2C[C@H](C(=O)O)C2)cn(-c2cc(C(C)(C)C)cc(C3(C)CC3)c2)c1SC1CCCCC1 [Example 21, trans-3-(1-(3-(tert-Butyl)-5-(1-methylcyclopropyl)phenyl)-5-(cyclohexylthio)-4-methyl-1H-pyrrole-3-carboxamido)cyclobutanecarboxylic acid]
pIC50 (FF) (RORγ): 8.0 | pIC50 (REN) (RORγ): 8.2 | IC50 [1]: 794 nM

CC(=O)NS(=O)(=O)c1nc(-c2cc(C(C)(C)C)cc(C(C)(C)C)c2)n(CC2CCCCC2)n1 [Example 310, N-((1-(Cyclohexylmethyl)-5-(3,5-di-tert-butylphenyl)-1H-1,2,4-triazol-3-yl)sulfonyl)acetamide]
pIC50 (FF) (RORγ): < 4.7 | pIC50 (REN) (RORγ): < 4.7 | IC50 [1]: 12600 nM

Cc1c(C(=O)NC2CCOCC2)cc(-c2ccc(S(=O)(=O)NC(C)(C)C)c(C(C)(C)C)c2)n1CC(C)(C)C [Example 302/1]
pIC50 (FF) (RORγ): 6.3 | pIC50 (REN) (RORγ): 6.4 | IC50 [1]: 1580 nM

CC(C)(C)NS(=O)(=O)c1ccc(-c2nc(C(=O)NC3CCOCC3)nn2CC2CCCCC2)cc1C(C)(C)C [308/9]
pIC50 (FF) (RORγ): 5.6 | pIC50 (REN) (RORγ): 5.6 | IC50 [1]: 7940 nM

CC(C)(C)NS(=O)(=O)c1ccc(-c2cc(C(=O)NC3CCOCC3)nn2CC2CCCCC2)cc1C(C)(C)C [100/2]
pIC50 (FF) (RORγ): 7.3 | pIC50 (REN) (RORγ): 7.4 | IC50 [1]: 794 nM

Cc1c(C(=O)NCC(C)(C)O)cn(-c2cc(C(C)(C)C)cc(C3(C)CC3)c2)c1CC1CCCCC1 [Example 1/1]
pIC50 (FF) (RORγ): 7.4 | pIC50 (REN) (RORγ): 7.5 | IC50 [1]: 200 nM

CC(C)(C)c1cc(-c2[nH]c(C(=O)NC3CCOCC3)cc2CC2CCCCC2)cc(C2(C)CC2)c1 [Example 12, 5-(3-(tert-Butyl)-5-(1-methylcyclopropyl)phenyl)-4-(cyclohexylmethyl)-N-(tetrahydro-2H-pyran-4-yl)-1H-pyrrole-2-carboxamide]
pIC50 (FF) (RORγ): 6.9 | pIC50 (REN) (RORγ): 6.8 | IC50 [1]: 1000 nM

Cc1c(C(=O)N[C@H]2C[C@H](C(=O)O)C2)cn(-c2ccc(S(=O)(=O)NC(C)(C)C)c(C(C)(C)C)c2)c1CC1CCCCC1 [Example 4/1]
pIC50 (FF) (RORγ): 7.2 | pIC50 (REN) (RORγ): 7.3 | IC50 [1]: 1260 nM

CC(C)(C)NS(=O)(=O)c1ccc(-c2cc(C(=O)NCCC(C)(C)C(=O)O)nn2CC2CCCCC2)cc1C(C)(C)C [100/4]
pIC50 (FF) (RORγ): 6.6 | pIC50 (REN) (RORγ): 6.7 | IC50 [1]: 2000 nM

CC(C)(C)NS(=O)(=O)c1ccc(-n2nc(C(=O)NC3CCOCC3)nc2CC2CCCCC2)cc1C(C)(C)C [Example 318/1]
pIC50 (FF) (RORγ): 6.2 | pIC50 (REN) (RORγ): 6.2 | IC50 [1]: 2510 nM
